Assay results reported in ChEMBL document CHEMBL1201862, “PubChem BioAssay data set” (2004).
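Values below derive from 48-hour exposures of cells grown in 96-well plates, with endpoints linearly interpolated between the two concentrations bracketing the appropriate inhibition level. The concentration for 50% growth inhibition is given as GI50.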 The source made the active and inactive calls. Cut-off read from the data, not from the text of the source: active = GI50 up to about 1.1 µM and inactive = higher.

Legend:
Experiment in all cases: NCI-60 cell line screen, 48 h
ACHN = tested on: ACHN
786-0 = tested on: 786-0
M14 = tested on: M14
HCT-15 = tested on: HCT-15
A549 = tested on: A549
HCC 2998 = tested on: HCC 2998
SN12C = tested on: SN12C
DMS-114 = tested on: DMS-114
LXFL 529 = tested on: LXFL 529
OVCAR-3 = tested on: OVCAR-3
CAKI-1 = tested on: CAKI-1
K562 = tested on: K562
CCRF-CEM = tested on: CCRF-CEM
Malme-3M = tested on: Malme-3M
COLO 205 = tested on: COLO 205
DMS-273 = tested on: DMS-273
EKVX = tested on: EKVX
SF-539 = tested on: SF-539
SK-MEL-2 = tested on: SK-MEL-2
OVCAR-8 = tested on: OVCAR-8
HOP-92 = tested on: HOP-92
SF-295 = tested on: SF-295
MOLT-4 = tested on: MOLT-4
UACC-62 = tested on: UACC-62
SW-620 = tested on: SW-620
SR = tested on: SR
KM12 = tested on: KM12
IGROV-1 = tested on: IGROV-1
RPMI-8226 = tested on: RPMI-8226
SNB-75 = tested on: SNB-75
DLD-1 = tested on: DLD-1
KM-20L2 = tested on: KM-20L2
HCT-116 = tested on: HCT-116
SF-268 = tested on: SF-268
SK-MEL-28 = tested on: SK-MEL-28
SNB-19 = tested on: SNB-19
HL-60 = tested on: HL-60
NCI-H522 = tested on: NCI-H522
UACC-257 = tested on: UACC-257
NCI-H460 = tested on: NCI-H460
U-251 = tested on: U-251
HOP-62 = tested on: HOP-62
XF498 = tested on: XF498
M19-MEL = tested on: M19-MEL
RXF 631 = tested on: RXF 631
HT-29 = tested on: HT-29
NCI-H226 = tested on: NCI-H226
OVCAR-4 = tested on: OVCAR-4
HOP-18 = tested on: HOP-18
UO-31 = tested on: UO-31
NCI-H23 = tested on: NCI-H23
TK-10 = tested on: TK-10
OVCAR-5 = tested on: OVCAR-5
LOX IMVI = tested on: LOX IMVI
SK-MEL-5 = tested on: SK-MEL-5
SK-OV-3 = tested on: SK-OV-3
A498 = tested on: A498
SNB-78 = tested on: SNB-78
RXF 393 = tested on: RXF 393

Measured: GI50

CC(=O)NC(CCCCNC(=O)N(CCCl)N=O)C(=O)NCc1ccccc1 (stereo not drawn)
> 100 µM: HCT-15
inactive: ACHN > 100 µM | 786-0 35.9 µM | M14 > 100 µM | A549 > 100 µM | HCC 2998 > 100 µM | SN12C > 100 µM | DMS-114 > 100 µM | LXFL 529 > 100 µM | OVCAR-3 > 100 µM | CAKI-1 > 100 µM | K562 > 100 µM | CCRF-CEM > 100 µM | Malme-3M > 100 µM | COLO 205 > 100 µM | DMS-273 > 100 µM | EKVX > 100 µM | SF-539 29 µM | SK-MEL-2 > 100 µM | OVCAR-8 > 100 µM | HOP-92 > 100 µM | SF-295 55.2 µM | MOLT-4 > 100 µM | UACC-62 > 100 µM | SW-620 > 100 µM | SR 91.6 µM | KM12 > 100 µM | IGROV-1 51.8 µM | RPMI-8226 > 100 µM | SNB-75 27.2 µM | DLD-1 > 100 µM | KM-20L2 > 100 µM | HCT-116 > 100 µM | SF-268 17.9 µM | SK-MEL-28 > 100 µM | SNB-19 > 100 µM | HL-60 > 100 µM | NCI-H522 > 100 µM | UACC-257 > 100 µM | NCI-H460 28.6 µM | U-251 61.7 µM | HOP-62 > 100 µM | XF498 > 100 µM | M19-MEL > 100 µM | RXF 631 > 100 µM | HT-29 > 100 µM | NCI-H226 > 100 µM | OVCAR-4 > 100 µM | HOP-18 > 100 µM | UO-31 > 100 µM | NCI-H23 > 100 µM

O=S1(=O)CCCS(=O)(=O)C(c2ccccc2)=C1c1ccccc1
27.7 µM: HCT-15
inactive: ACHN 54 µM | 786-0 66.4 µM | TK-10 > 100 µM | M14 26.9 µM | OVCAR-5 > 100 µM | A549 42.3 µM | HCC 2998 18.5 µM | SN12C 29.4 µM | DMS-114 42.7 µM | LXFL 529 29.6 µM | OVCAR-3 36.6 µM | CAKI-1 76.7 µM | K562 31.9 µM | LOX IMVI 33 µM | CCRF-CEM 32.1 µM | Malme-3M 34.2 µM | EKVX > 100 µM | SF-539 > 100 µM | SK-MEL-2 42.6 µM | OVCAR-8 91.6 µM | HOP-92 28.2 µM | SF-295 > 10 µM | MOLT-4 36.2 µM | SK-MEL-5 52.8 µM | UACC-62 29 µM | SW-620 27.5 µM | SR 31.6 µM | KM12 24.7 µM | IGROV-1 70.5 µM | RPMI-8226 41 µM | SNB-75 27.5 µM | DLD-1 39.7 µM | KM-20L2 37.2 µM | HCT-116 30.5 µM | SF-268 > 100 µM | SK-MEL-28 > 100 µM | SK-OV-3 44.2 µM | HL-60 18.6 µM | NCI-H522 27.5 µM | UACC-257 69.7 µM | NCI-H460 47.3 µM | U-251 92.7 µM | HOP-62 30.3 µM | M19-MEL 70.5 µM | RXF 631 84.7 µM | HT-29 64 µM | A498 > 100 µM | NCI-H226 56.5 µM | SNB-78 > 100 µM | OVCAR-4 23.3 µM | HOP-18 44.6 µM | UO-31 > 100 µM | NCI-H23 50.5 µM

CCCCCCCCCCCCCCC1OC(=O)c2ccccc21 (stereo not drawn)
inactive: ACHN 43.5 µM | 786-0 > 100 µM | TK-10 > 100 µM | M14 > 100 µM | OVCAR-5 31.7 µM | A549 60.3 µM | SN12C 24.5 µM | DMS-114 24 µM | LXFL 529 77.1 µM | OVCAR-3 79.8 µM | K562 30.6 µM | LOX IMVI 86.1 µM | CCRF-CEM 32.7 µM | Malme-3M > 100 µM | EKVX 39.9 µM | SF-539 > 100 µM | OVCAR-8 55.8 µM | SF-295 > 100 µM | MOLT-4 36.7 µM | UACC-62 > 100 µM | SW-620 63.4 µM | SR 42.5 µM | KM12 39.1 µM | IGROV-1 89.5 µM | RPMI-8226 32.2 µM | RXF 393 52 µM | SNB-75 > 100 µM | DLD-1 71.4 µM | KM-20L2 42.9 µM | HCT-116 34.6 µM | SF-268 > 100 µM | SK-MEL-28 > 100 µM | SK-OV-3 > 100 µM | SNB-19 > 100 µM | HL-60 15.6 µM | UACC-257 52.7 µM | NCI-H460 60.8 µM | U-251 > 100 µM | HOP-62 > 100 µM | M19-MEL 85.7 µM | RXF 631 > 100 µM | HT-29 35.8 µM | A498 > 100 µM | NCI-H226 53.3 µM | SNB-78 > 100 µM | OVCAR-4 66.7 µM | HOP-18 > 100 µM | UO-31 > 100 µM | NCI-H23 43.8 µM

COc1ccc2ccccc2c1C1OC(=O)c2ccccc21 (stereo not drawn)
> 100 µM: HCT-15
inactive: ACHN > 100 µM | 786-0 > 100 µM | TK-10 > 100 µM | M14 > 100 µM | OVCAR-5 > 100 µM | A549 96.2 µM | HCC 2998 > 100 µM | SN12C > 100 µM | DMS-114 53.3 µM | OVCAR-3 > 100 µM | CAKI-1 > 100 µM | K562 33 µM | LOX IMVI > 100 µM | CCRF-CEM > 100 µM | Malme-3M > 100 µM | COLO 205 > 100 µM | DMS-273 86.9 µM | EKVX > 100 µM | SF-539 > 100 µM | OVCAR-8 > 100 µM | HOP-92 > 100 µM | SF-295 56.2 µM | MOLT-4 44.2 µM | SK-MEL-5 > 100 µM | UACC-62 80 µM | SW-620 87.9 µM | KM12 56.6 µM | IGROV-1 > 100 µM | RPMI-8226 > 100 µM | DLD-1 > 100 µM | KM-20L2 > 100 µM | SF-268 > 100 µM | SK-OV-3 > 100 µM | SNB-19 > 100 µM | HL-60 44.3 µM | NCI-H522 63.5 µM | UACC-257 91 µM | U-251 > 100 µM | HOP-62 > 100 µM | M19-MEL > 100 µM | RXF 631 > 100 µM | HT-29 > 100 µM | A498 > 100 µM | NCI-H226 > 100 µM | SNB-78 > 100 µM | OVCAR-4 82.8 µM | HOP-18 > 100 µM | UO-31 68.2 µM | NCI-H23 > 100 µM

Cn1nc(-c2ccccc2)c2c(/C=C/c3ccc(Cl)cc3)onc2c1=O
inactive: ACHN 8.57 µM | 786-0 7.6 µM | TK-10 33 µM | M14 > 100 µM | A549 8.95 µM | SN12C 17.1 µM | DMS-114 > 100 µM | LXFL 529 39.9 µM | CAKI-1 > 10 µM | K562 40.8 µM | LOX IMVI 25.6 µM | CCRF-CEM 27.7 µM | COLO 205 30.8 µM | DMS-273 > 100 µM | EKVX > 100 µM | SF-539 22.6 µM | OVCAR-8 16.7 µM | HOP-92 21.7 µM | SF-295 27.4 µM | MOLT-4 > 100 µM | SK-MEL-5 > 100 µM | UACC-62 35.8 µM | SW-620 28.7 µM | IGROV-1 31.4 µM | RPMI-8226 31.8 µM | RXF 393 39.8 µM | DLD-1 46 µM | KM-20L2 19.1 µM | HCT-116 11.1 µM | SF-268 > 100 µM | SK-MEL-28 51.3 µM | SK-OV-3 > 10 µM | SNB-19 41.5 µM | NCI-H522 13.3 µM | NCI-H460 > 100 µM | U-251 33.7 µM | XF498 10.5 µM | M19-MEL 89.9 µM | RXF 631 > 100 µM | HT-29 34.4 µM | HOP-18 9.84 µM | UO-31 16.3 µM | NCI-H23 > 100 µM
26.3 µM: HCT-15
